Columns and labels:
[1] = tested on: KG-1, HL-60, K562, THP-1 cells; format: cell-based
[2] = tested on: canonical FOXM1 target genes; assay: Real-time PCR of canonical FOXM1 target genes in primary AML mononuclear cells treated ex vivo; format: cell-based, human; details: primary AML samples (n=5), 5 μM, 24 h
OVCAR-8, ES-2 cells = assay: Chemosensitization (caspase-3 cleavage) of ovarian cancer cells to doxorubicin; format: cell-based, human
Description: (§1) FIG. 16. […] (A) Ovarian cancer (OVCAR-8 and ES-2) cells were treated with indicated concentrations of Doxorubicin (Doxo) alone or in combination with STL001 for 24 hrs. […] (C) colon cancer (HCT-116 and FET) cells were treated with indicated concentrations of 5′FU alone or in combination with STL001 for 24 hrs.

[3] = tested on: HCT-116 and HCT-FET cells; assay: Chemosensitization (caspase-3 cleavage) of colorectal cancer cells to 5′FU; format: cell-based, human
Description: as §1

22RV1, LNCaP cells = tested on: 22RV1, LNCaP cells
Description: (§2) FIG. 17. […] (A) Prostate cancer (22RV1 and LNCaP) cells were treated with indicated concentrations of paclitaxel alone or in combination with STL001 for 24 hrs. (B) Tamoxifen resistance MCF-7 breast cancer cells (TAM-R) were treated with indicated concentrations of Tamoxifen alone or in combination with STL001 for 24 hrs. In all cases, total protein samples were obtained from cells immediately after treatment and analyzed for FOXM1, cleaved caspase-3 levels via immunoblotting, β-actin was used as internal loading control (n=3). (C) Percent (%) dead cells in TAM-R cells treated with indicated concentrations of Tamoxifen alone or in combination with STL001 for 24 hrs. […] (F) HCC 143 cells with stable shRNA-mediated FOXM1 knockdown (KD) were treated with doxorubicin alone or in combination with STL001 for 24 hrs and compared to parental cells under the same treatment conditions. In all cases, total protein samples were obtained from cells immediately after treatment and analyzed for FOXM1, cleaved caspase-3 levels via immunoblotting, β-actin was used as internal loading control (n=3).

TAMR cells = format: cell-based
Description: as §2

HCC-1143 cells = details: HCC-1143 FOXM1-KD, doxorubicin
Description: as §2
Stable FOXM1-expression knockdown in cancer cell: Cells were seeded on commercially available 12-well tissue culture plates to achieve ~40% confluency. […] Transduced cells were selected by their cultivation with puromycin (1.0 μg/mL) for 10 days and then maintained without puromycin as described above.

[4] = KG-1, HL-60 and K562 cells, 24 h

## O=C(Oc1cccc(-c2ccn(-c3nc(Nc4ccccc4)nc(N4CCOCC4)n3)n2)c1)c1ccco1 [STL001]
[1]; AML cell lines, single agent
  cytotoxic action alone: did not exert prominent cytotoxic action on its own
[1]; [4]
  apoptosis (caspase-3 cleavage) in combination with cytarabine: potent induction of apoptosis
  apoptosis (caspase-3 cleavage) in combination with venetoclax: potent induction of apoptosis
[1]; KG-1 shFOXM1 cells, venetoclax
  treatment sensitization effect in cells with stable knockdown of FOXM1: absent
[2]
  expression of FOXM1 transcriptional targets AURKB and CDC25B: significantly suppressed expression
  expression of PLK1 and FOXM1: downregulation
OVCAR-8, ES-2 cells
  cytotoxic effects as a single agent: did not exert significant cytotoxic effects
OVCAR-8, ES-2 cells; 24 hrs
  apoptotic cell death (caspase-3 cleavage) in combination with doxorubicin: potent induction of apoptotic cell death
[3]
  sensitivity to cytotoxic effects of 5′FU in combination: significantly enhanced the sensitivity of colorectal cancer cells to cytotoxic effects of 5′FU therapy
22RV1, LNCaP cells
  cytotoxic effects (caspase-3 cleavage) in combination with taxol: enhanced the cytotoxic effects of taxol-therapy
TAMR cells
  cytotoxic effects (caspase-3 cleavage, cell viability) in combination with tamoxifen: drastically enhances the cytotoxic effects of tamoxifen therapy
HCC-1143 cells
  sensitization effect in FOXM1 deficient cells: absent

Reference: patent publication US20260217691A1, “FOXM1 INHIBITORS AND THEIR USE IN TREATING CANCERS” (THE BOARD OF TRUSTEES OF THE UNIVERSITY OF ILLINOIS, priority 2022, published 2026)
